Measurements taken from PMC7277541, “Antimicrobial and Antifungal Activities of Terpene-Derived Palladium Complexes” (Antibiotics, 2020).
Values after ≈ are worked out from the molar mass of the structure shown. Values joined by “and” are separate entries in the source; they are usually repeats but may differ in a detail not shown here. Identical values can stand only once.

Experiments:
[1] = test system: S. aureus (MRSA) ATCC 43300; assay: Antibacterial MIC assay, S. aureus (MRSA); type: cell-based, Staphylococcus aureus; settings: CAMHB, 18 h, growth inhibited by ≥ 80%, range tested 0.25 to 32 μg/mL, n = 2
Procedure: (§1) Dry compounds were dissolved in dimethyl sulfoxide (DMSO), and serially diluted 2-fold to produce an 8-point dose response with DMSO/water and then added into microtiter plates with a final DMSO concentration of 0.5%, providing a concentration range of 0.25 to 32 μg/mL. Screening against bacteria and yeasts for antimicrobial activity and toxicity against mammalian cells was performed in duplicate (n = 2).
For the bacterial assays, each bacterial strain was cultured in Cation-Adjusted Mueller Hinton Broth (CAMHB; Bacto Laboratories 212322) at 37 °C overnight. Bacterial strains tested were methicillin resistant S. aureus (methicillin-resistant Staphylococcus aureus - MRSA) ATCC 43300, E. coli ATCC 25922, K. pneumoniae K6/ESBL ATCC 700603, P. aeruginosa ATCC 27853, A. baumannii ATCC 19606. A sample of each culture was then diluted 40-fold in fresh CAMHB and incubated at 37 °C for 1.5–3 h. The resultant mid-log phase cultures were diluted with CAMHB (CFU/mL measured by OD600), then added to each well of the compound-containing plates (384-well non-binding surface (NBS) plates; Corning CLS3640), giving a final cell density of 5 × 10^5 CFU/mL and a total volume of 50 μL. Plates were covered and incubated at 37 °C for 18 h without shaking. Inhibition of bacterial growth was determined by measuring absorbance at 600 nm (OD600), using media only as negative control and bacteria without inhibitors as positive control. MIC values were determined as the lowest concentration at which the growth was inhibited by ≥ 80% (equivalent to no visible growth by eye). Colistin sulfate (Sigma Aldrich, Castle Hill, Australia C4461) and vancomycin HCl (Sigma Aldrich, 861987) were used as positive inhibitor controls on each plate for Gram-negative and Gram-positive bacteria, respectively.

[2] = test system: C. neoformans var. grubii H99 ATCC 208821; assay: Antifungal MIC assay, C. neoformans; type: cell-based, Cryptococcus neoformans; settings: 35 °C, 36 h, resazurin, growth inhibited ≥ 80%, range tested 0.25 to 32 μg/mL; for Minimum inhibitory concentration (MIC) C. neoformans ATCC 208821: YNB, n = 2
Procedure: Screening against bacteria and yeasts for antimicrobial activity and toxicity against mammalian cells was performed in duplicate (n = 2). […] Becton Dickinson 242720) agar at 30 °C. A yeast suspension of 1 × 10^6 to 5 × 10^6 CFU/mL (as determined by OD530) was prepared from five colonies form the agar plates, and subsequently diluted with Yeast Nitrogen Base media (YNB; Becton Dickinson 233520), and added to each well of the compound containing plates (384-well plates, NBS; […] Plates were covered and incubated at 35 °C for 36 h without shaking. […] Fluconazole (Sigma Aldrich, F8929) was used as a positive inhibitor control on each plate for both strains.

C. albicans ATCC 90028 = assay: Antifungal MIC assay, C. albicans; type: cell-based, Candida albicans; settings: YNB, 35 °C, 36 h, growth inhibited ≥ 80%; range tested 0.25 to 32 μg/mL; n = 2
Procedure: as §1, with “All screened compounds were > 95% purity as determined by NMR. Dry” for “Dry”
For the fungal assays, yeast strains C. neoformans var. grubii H99 ATCC 208821 and C. albicans ATCC 90028 were cultured for 3 days on Yeast Extract-Peptone Dextrose (YPD; Becton Dickinson 242720) agar at 30 °C. A yeast suspension of 1 × 10^6 to 5 × 10^6 CFU/mL (as determined by OD530) was prepared from five colonies form the agar plates, and subsequently diluted with Yeast Nitrogen Base media (YNB; Becton Dickinson 233520), and added to each well of the compound containing plates (384-well plates, NBS; Corning CLS3640) giving a final cell density of 2.5 × 10^3 CFU/mL and a total volume of 50 μL. Plates were covered and incubated at 35 °C for 36 h without shaking. Growth inhibition of C. albicans was determined measuring absorbance at 630 nm (OD630), while the growth inhibition of C. neoformans was determined measuring the difference in absorbance between 600 and 570 nm (OD600-570), after the addition of resazurin (0.001% final concentration; Sigma R7017) and incubation at 35 °C for 2 h, using media only as negative control and fungi without inhibitors as positive control. MIC values were determined as the lowest concentration at which the growth was inhibited at ≥ 80% (equivalent to no visible growth by eye). Fluconazole (Sigma Aldrich, F8929) was used as a positive inhibitor control on each plate for both strains.

[3] = test system: human embryonic kidney cells (HEK293, ATCC CRL-1573); assay: Cytotoxicity assay (resazurin); type: cell-based; settings: HEK293, 20 h incubation
Procedure: Screening against bacteria and yeasts for antimicrobial activity and toxicity against mammalian cells was performed in duplicate (n = 2). […] HEK293 cells were counted manually in a Neubauer hemocytometer and added to compound-containing plates (384-well plates, tissue culture treated (TC); Corning CLS3712) giving a final density of 5000 cells/well in a total volume of 50 μL, using Dulbecco's Modified Eagle Medium (DMEM; Life Technologies 11995-073) with 10% Fetal Bovine Serum (FBS; GE SH30084.03). […] Sigma R7017) and after further incubation for 3 h at 37 °C in 5% CO2. Media only was used as negative control and cells without inhibitors as positive growth control. CC50 (concentration at 50% cytotoxicity) values were calculated by curve fitting the inhibition values vs. log(concentration) using a sigmoidal dose-response function, with variable fitting values for bottom, top and slope. Tamoxifen (Sigma Aldrich, Australia T5648) was used as positive inhibitor control on each plate. Selectivity indices (SI) were calculated by dividing the CC50 value (μg/mL) by the MIC value (μg/mL) for a given bacterial or fungal strain.

SMILES | Minimum inhibitory concentration (MIC) S. aureus ATCC 43300 [1] [µg/mL] | Minimum inhibitory concentration (MIC) C. neoformans ATCC 208821 [2] | Minimum inhibitory concentration (MIC) C. albicans ATCC 90028 (C. albicans ATCC 90028) | CC50 (concentration of 50% cytotoxicity) [3] [µg/mL] | MIC ([2]; Cryptococcus neoformans, ATCC208821, YNB, n = 2, read-out: Minimum inhibitory concentration (MIC) C. neoformans ATCC 208821) [µg/mL]
CC1(C)[C@H]2CC(=NCCN)[C@](C)(O)[C@@H]1C2.[Cl][Pd][Cl] [Compound 8] | >32 | 2—4 μg/mL and 4 μg/mL | 8—16 μg/mL and 8 μg/mL | >32 | 
CN(C)CCN=C1C[C@H]2C[C@H](C2(C)C)[C@@]1(C)O.[Cl][Pd][Cl] [Compound 9] | >32 | 2—4 μg/mL and 2 μg/mL | 8—16 μg/mL and 16 μg/mL | >32 | 
CN(C)CCNCC1=CCC2CC1C2(C)C.[Cl][Pd][Cl] (stereo not drawn) [Compound 12] |  |  | 2 µg/mL | >32 | 
OC(Cn1cncn1)(Cn1cncn1)c1ccc(F)cc1F [fluconazole, Fluconazole, reference compound] |  |  |  |  | 8 (≈ 26.1 µM)
C[C@H](N[C@@H]1C[C@H]2C[C@H](C2(C)C)[C@@]1(C)O)c1cccc[c]1[Pd][Cl].C[C@H](N[C@@H]1C[C@H]2C[C@H](C2(C)C)[C@@]1(C)O)c1cccc[c]1[Pd][Cl] [Compound 4] | 32 |  |  | 16.6 | 
CN(C)CCN=CC1=CCC2CC1C2(C)C.[Cl][Pd][Cl] (stereo not drawn) [Compound 11] | >32 |  |  | 10.8 | 
CC1(C)[C@@H]2C[C@H]1[C@@](C)(O)[C@H](NCCN[C@@H]1C[C@H]3C[C@H](C3(C)C)[C@@]1(C)O)C2.[Cl][Pd][Cl] [Compound 10] | >32 | 4 µg/mL | 4 µg/mL | >32 | 
CC12CCC(C(=NC(c3ccccc3)c3cccc[c]3[Pd][Cl])C1=O)C2(C)C.CC12CCC(C(=NC(c3ccccc3)c3cccc[c]3[Pd][Cl])C1=O)C2(C)C (stereo not drawn) [Compound 3] | 16 | 0.5 µg/mL | 2 µg/mL | 6.0 | 
CC(C)(C)c1cc(C=NCCN=C2C[C@H]3C[C@H](C3(C)C)[C@@]2(C)O)c([O][Pd][Cl])c(C(C)(C)C)c1 [Compound 6] | 8 | 4—16 μg/mL and 4 μg/mL | 4—16 μg/mL and 8 μg/mL | 4.5 | 
CC12CCC(CC1=NCCN=Cc1ccccc1[O][Pd][Cl])C2(C)C (stereo not drawn) [Compound 7] | >32 | 4—16 μg/mL and 4 μg/mL |  | >32 | 
